Columns and labels:
[1] = tested on: Sprague-Dawley rats; experiment: Basal and stress-induced (restraint) serum corticosterone, HPA axis activity; format: in vivo, rat; settings: for serum levels of corticosterone before and after physical restraint: all experimental groups
Description: Sixty-four G1 rats (32 control and 32 sevoflurane exposed) and 122 G2 rats, which were not exposed to sevoflurane anesthesia and were subjected to animal facility rearing only, were studied. The G1 rats were sequentially evaluated in the EPM starting on ~[…], PPI of the acoustic startle response on ~[…] and MWM starting ~on […] (FIG. 1). One half of these animals were sacrificed on ≥[…] to collect trunk blood, brain and testis and ovarian tissues for further analyses. The rest of these animals were physically restrained for 30 min on ≥[…] to measure corticosterone responses, followed by collection of tissue samples (as above) for further analyses. The G2 rats were evaluated in the EPM starting on P60 and PPI of startle on P70 (FIG. 1). One half of these animals were sacrificed on ≥[…] to collect trunk blood and brain tissue samples for further analyses, and the rest of these animals were tested for the corticosterone responses to physical restraint for 30 min on ≥[…] before collecting the trunk blood and brain tissue samples. Blood samples (~300 μl) were collected using the “tail clip” method at rest and 10, 60, and 120 min after the restraint. Physical restraint was administered using rodent holders (Kent scientific Corporation, Torrington, CT). Serum corticosterone was measured using commercial ELISA kits (Cayman Chemical Company, Ann Arbor, MI, USA) according to the manufacturer's instructions.

[2] = tested on: Crh, Grs, Erα, Erβ, aromatase, Gnrh, Nkcc1 and Kcc2 mRNA; experiment: qRT-PCR of mRNA levels in hypothalamus and hippocampus; format: in vivo, rat
Experimental: Levels of mRNA for Nkcc1 and Kcc2 in the hypothalamus and hippocampus, for Crh, Erα, Erβ, aromatase, GnRH in the hypothalamus, and for Grs in the hippocampus were analyzed via reverse transcription-PCR (qRT-PCR) in a StepOnePlus™ Real-Time PCR System (Applied Biosystems, Foster City, CA) as previously described. 5 RNA was extracted from the samples using an RNeasy Plus Kit (Qiagen, Valencia, CA), reverse transcribed with a high-capacity cDNA reverse transcription kit (Bio-Rad Laboratories, Hercules, CA), and then analyzed via qRT-PCR. Taqman probes specific for the above genes were obtained from Applied Biosystems (Carlsbad, CA): Crh (Rn01462137_m1), Gr (Rn00561369_m1), Erα (Rn01430446_m1), Erβ (Rn00562610_m1), aromatase (Rn00567222_m1), Gnrh (Rn00562754_m1), Nkcc1 (Rn00582505_m1) and Kcc2 (Rn00592624_m1). Data were normalized to glyceraldehyde-3-phosphate dehydrogenase (Gapdh) mRNA (Rn01775763_g1). Gene expression was calculated using the ΔΔCT method and data are presented as relative fold change from that of control animals.

[3] = G1 female rats, control vs sevoflurane-exposed
[4] = G1 female rats, more than 3 months after exposure
[5] = G1 male rats, more than 3 months after exposure
[6] = G2 female rats, parental sevoflurane exposure
[7] = G2 females, parental sevoflurane exposures
[8] = G2 males, all four treatment groups

FCOC(C(F)(F)F)C(F)(F)F [sevoflurane, 1,1,1,3,3,3-hexafluoro-2-(fluoromethoxy)propane]
serum corticosterone levels ([1]; G1 female rats, before and after restraint, vs control): no difference | serum corticosterone ([1]; G1 male rats, 10 min after restraint, vs control): higher levels | total corticosterone responses (AUCg) ([1]; G1 male rats, 30 min restraint on ≥P160, vs control): significantly higher | serum corticosterone ([1]; G1 male rats, 60 min after restraint, vs control): higher levels | serum corticosterone ([1]; G1 male rats, 120 min post restraint, vs control): not different | serum corticosterone ([1]; G1 male rats, before the restraint, vs control): not different | serum levels of corticosterone before and after physical restraint ([1]; G2 female rats): no differences | serum levels of corticosterone before and after physical restraint ([1]; G2 male rats): no differences | hippocampal Kcc2 mRNA levels [2, 3]: similar | hippocampal Nkcc1 mRNA levels [2, 3]: similar | Kcc2 mRNA levels in the hypothalamus [2, 4]: unaltered | Nkcc1 mRNA levels in the hypothalamus [2, 4]: unaltered | hippocampal Gr mRNA levels ([2]; G1 female rats, vs control): Neither hypothalamic Crh mRNA levels (FIG. 4C) nor hippocampal GrmRNA levels (FIG. 4D) were different | hypothalamic Crh mRNA levels ([2]; G1 female rats, vs control): Neither hypothalamic Crh mRNA levels (FIG. 4C) nor hippocampal GrmRNA levels (FIG. 4D) were different | hypothalamic levels of Erα mRNA ([2]; G1 female rats, vs control): not different | hypothalamic levels of Erβ mRNA ([2]; G1 female rats, vs control): slightly, though significantly increased | hypothalamic levels of Gnrh mRNA ([2]; G1 female rats, vs control): no significant treatment effects | increase in hypothalamic aromatase mRNA ([2]; G1 female rats, vs control): did not achieve statistical significance | hypothalamic Crh mRNA levels ([2]; G1 male rats, 2 hours after the restraint, vs control): increased | Kcc2 mRNA levels in the hippocampus [2, 5]: significantly reduced | Kcc2 mRNA levels in the hypothalamus [2, 5]: decreased | Nkcc1 mRNA levels in the hippocampus [2, 5]: but not Nkcc1 mRNA levels | Nkcc1 mRNA levels in the hypothalamus [2, 5]: normal | Gr mRNA in the hippocampus ([2]; G1 male rats, vs control): reduced | hypothalamic levels of Era mRNA ([2]; G1 male rats, vs control): increased | hypothalamic levels of Erβ mRNA ([2]; G1 male rats, vs control): decreased | hypothalamic levels of Gnrh mRNA ([2]; G1 male rats, vs control): increased | hypothalamic levels of aromatase mRNA ([2]; G1 male rats, vs control): significantly increased | hippocampal Gr mRNA levels [2, 6]: no significant between-subjects effects | hypothalamic Crh mRNA [2, 6]: no significant between-subjects effects | Kcc2 mRNA level in the hippocampus [2, 7]: not significant | Kcc2 mRNA levels in the hypothalamus [2, 7]: not significant | Nkcc1 mRNA level in the hippocampus [2, 7]: not significant | Nkcc1 mRNA levels in the hypothalamus [2, 7]: not significant | hippocampal Kcc2 mRNA levels ([2]; G2 male offspring of both exposed parents): reduced | hippocampal Kcc2 mRNA levels ([2]; G2 male offspring of exposed fathers and control mothers): reduced | hypothalamic Kcc2 mRNA levels ([2]; G2 male progeny of sevoflurane exposed fathers and mothers, vs offspring of control parents): lower levels | Crh mRNA in the hypothalamus [2, 8]: not different | Gr mRNA levels in the hippocampus [2, 8]: not different | Nkcc1 mRNA levels in the hippocampus ([2]; G2 males, parental sevoflurane exposure): no significant effects

Reference: US12721823B2, “Methods and compositions for treatment of low circulating testosterone conditions” (University of Florida Research Foundation, Inc., priority 2021, dated 2026)
